Experimental data from ChEMBL document CHEMBL5500400, “Design and Discovery of a Potent and Selective Inhibitor of Integrin αvβ1” (J Med Chem, 2024).
Blank lines part the entries; values can stand above or below the compound they belong to.

Experiments:
[1] = biological target: T1, Integrin alpha-V/beta-6 (Homo sapiens, UniProt P06756+P18564); assay: Inhibition of recombinant human Integrin alphaVbeta6 using TMB as substrate incubated for 2 hrs in presence of LAP by ELISA; assay type: protein-complex assay
[2] = biological target: T2, Integrin alpha-V/beta-8 (Homo sapiens, UniProt P06756+P26012); assay: Inhibition of recombinant human Integrin alphaVbeta8 using TMB as substrate incubated for 2 hrs in presence of LAP by ELISA; assay type: protein-complex assay
[3] = biological target: T3, Integrin alpha-V/beta-3 (Homo sapiens, UniProt P05106+P06756); assay: Inhibition of recombinant human Integrin alphaVbeta3 using TMB as substrate incubated for 2 hrs in presence of vitronectin by ELISA; assay type: protein-complex assay
[4] = biological target: T4, Integrin alpha-5/beta-1 (Homo sapiens, UniProt P05556+P08648); assay: Inhibition of recombinant human Integrin alpha5beta1 using TMB as substrate incubated for 2 hrs in presence of fibronectin by ELISA; assay type: protein-complex assay
[5] = biological target: T5, Integrin alpha-V/beta-1 (Homo sapiens, UniProt P05556+P06756); assay: Inhibition of recombinant human Integrin alphaVbeta1 using TMB as substrate incubated for 2 hrs in presence of fibronectin by ELISA; assay type: protein-complex assay
[6] = biological target: Integrin alpha-V/beta-5 (Homo sapiens, UniProt P06756+P18084); assay: Inhibition of recombinant human Integrin alphaVbeta5 using TMB as substrate incubated for 2 hrs in presence of fibronectin by ELISA; assay type: protein-complex assay
[7] = biological target: T6, Integrin alpha-4/beta-1 (Homo sapiens, UniProt P05556+P13612); assay: Inhibition of recombinant human Integrin alpha4beta1 using TMB as substrate incubated for 2 hrs in presence of VCAM-1 by ELISA; assay type: protein-complex assay
[8] = Apparent permeability across apical to basolateral side in dog MDCK-MDR1 cells incubated for 60 mins by HPLC analysis; assay type: ADME, cell-based, Canis lupus familiaris
[9] = Apparent permeability across basolateral to apical side in dog MDCK-MDR1 cells incubated for 60 mins by HPLC analysis; assay type: ADME, cell-based, Canis lupus familiaris
[10] = biological target: T2, Integrin alpha-V/beta-8; assay: Inhibition of Integrin alphaVbeta8 in human SNB-19 cells cocultured with TGF-beta expressing Mv1Lu cells assessed as inhibition of integrin alphaVbeta8 mediated TGF-beta transactivation by luciferase assay; assay type: cell-based
[11] = biological target: T3, Integrin alpha-V/beta-3; assay: Inhibition of recombinant human Integrin alphaVbeta3 mediated cellular adhesion expressed in HEK cells incubated for 24 hrs in presence of Ca2+ and Mg2+ by real-time cell analysis; assay type: cell-based
[12] = biological target: T5, Integrin alpha-V/beta-1; assay: Inhibition of human Integrin alphaVbeta1 expressed in CHO-B2 cell cocultured with TGF-beta expressing Mv1Lu cells assessed as inhibition of integrin alphaVbeta1 mediated TGF-beta transactivation by luciferase assay; assay type: cell-based
[13] = biological target: T4, Integrin alpha-5/beta-1; assay: Inhibition of Integrin alpha5beta1 mediated cellular adhesion in human HCT-116 cells incubated for 24 hrs in presence of Ca2+ and Mg2+ by real-time cell analysis; assay type: cell-based
[14] = biological target: T1, Integrin alpha-V/beta-6; assay: Inhibition of human Integrin alphaVbeta6 expressed in SW480 cells cocultured with TGF-beta expressing Mv1Lu cells assessed as inhibition of integrin alphaVbeta6 mediated TGF-beta transactivation by luciferase assay; assay type: cell-based
[15] = biological target: Integrin alpha-8/beta-1 (Homo sapiens, UniProt P05556+P53708); assay: Inhibition of recombinant human Integrin alpha8beta1 mediated cellular adhesion expressed in HEK cells incubated for 24 hrs in presence of Ca2+ and Mg2+ by real-time cell analysis; assay type: cell-based
[16] = biological target: T5, Integrin alpha-V/beta-1; assay: Inhibition of recombinant human Integrin alphaVbeta1 mediated cellular adhesion expressed in CHO-B2 cell incubated for 24 hrs in presence of Ca2+ and Mg2+ by real-time cell analysis; assay type: cell-based
[17] = biological target: T6, Integrin alpha-4/beta-1; assay: Inhibition of Integrin alpha4beta1 mediated cellular adhesion in human Jurkat cells incubated for 24 hrs in presence of Ca2+ and Mg2+ by real-time cell analysis; assay type: cell-based

T3 sequence (P05106 27-788 limits assumed): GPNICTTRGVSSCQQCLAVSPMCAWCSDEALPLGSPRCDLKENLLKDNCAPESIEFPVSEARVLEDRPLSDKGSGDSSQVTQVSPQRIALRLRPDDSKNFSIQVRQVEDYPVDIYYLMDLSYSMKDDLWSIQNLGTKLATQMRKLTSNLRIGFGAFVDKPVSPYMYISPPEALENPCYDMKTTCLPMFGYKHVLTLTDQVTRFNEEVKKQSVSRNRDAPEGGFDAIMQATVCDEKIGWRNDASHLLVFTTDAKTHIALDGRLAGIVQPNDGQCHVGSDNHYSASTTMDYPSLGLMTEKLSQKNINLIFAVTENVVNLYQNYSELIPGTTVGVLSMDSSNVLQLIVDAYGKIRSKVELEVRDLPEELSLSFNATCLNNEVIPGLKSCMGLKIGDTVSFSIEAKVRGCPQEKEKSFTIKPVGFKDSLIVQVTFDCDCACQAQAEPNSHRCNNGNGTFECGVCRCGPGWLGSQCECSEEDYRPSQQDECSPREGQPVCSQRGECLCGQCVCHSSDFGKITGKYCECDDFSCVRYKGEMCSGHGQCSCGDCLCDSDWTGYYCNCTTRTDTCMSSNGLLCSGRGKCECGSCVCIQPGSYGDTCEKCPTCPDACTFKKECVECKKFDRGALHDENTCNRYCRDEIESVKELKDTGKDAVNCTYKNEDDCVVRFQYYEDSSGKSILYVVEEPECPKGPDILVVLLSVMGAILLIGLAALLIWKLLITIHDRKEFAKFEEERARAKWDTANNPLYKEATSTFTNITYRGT
T3 sequence (P06756 31-889 limits assumed): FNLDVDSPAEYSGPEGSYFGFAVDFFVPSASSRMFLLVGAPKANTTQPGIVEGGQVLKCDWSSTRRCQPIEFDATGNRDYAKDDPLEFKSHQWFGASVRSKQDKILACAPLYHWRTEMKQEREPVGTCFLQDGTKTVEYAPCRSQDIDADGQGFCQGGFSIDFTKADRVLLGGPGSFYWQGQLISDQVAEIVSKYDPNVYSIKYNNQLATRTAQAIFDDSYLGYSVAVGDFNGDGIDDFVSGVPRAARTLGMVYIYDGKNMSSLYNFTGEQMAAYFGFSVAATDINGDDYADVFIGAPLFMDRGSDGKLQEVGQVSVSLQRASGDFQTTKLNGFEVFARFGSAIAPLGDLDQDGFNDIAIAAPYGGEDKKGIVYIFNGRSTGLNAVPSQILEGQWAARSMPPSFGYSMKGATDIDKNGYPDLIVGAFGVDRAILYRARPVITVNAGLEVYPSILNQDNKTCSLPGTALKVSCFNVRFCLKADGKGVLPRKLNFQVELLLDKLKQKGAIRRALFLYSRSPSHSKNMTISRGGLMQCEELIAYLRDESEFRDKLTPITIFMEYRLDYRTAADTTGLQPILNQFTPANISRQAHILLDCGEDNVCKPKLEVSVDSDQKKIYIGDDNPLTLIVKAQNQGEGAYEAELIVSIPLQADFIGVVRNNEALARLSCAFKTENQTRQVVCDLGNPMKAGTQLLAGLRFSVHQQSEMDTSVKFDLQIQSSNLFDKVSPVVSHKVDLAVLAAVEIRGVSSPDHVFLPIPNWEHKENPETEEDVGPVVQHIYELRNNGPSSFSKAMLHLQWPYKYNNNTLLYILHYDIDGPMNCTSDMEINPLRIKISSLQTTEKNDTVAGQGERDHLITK
T3 sequence (P06756 891-1048 limits assumed): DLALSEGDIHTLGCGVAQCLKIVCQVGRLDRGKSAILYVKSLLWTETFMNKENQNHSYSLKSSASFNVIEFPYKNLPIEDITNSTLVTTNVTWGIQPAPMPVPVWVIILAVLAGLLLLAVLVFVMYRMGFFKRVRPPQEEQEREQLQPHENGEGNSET
T4 sequence (P05556 21-798 limits assumed): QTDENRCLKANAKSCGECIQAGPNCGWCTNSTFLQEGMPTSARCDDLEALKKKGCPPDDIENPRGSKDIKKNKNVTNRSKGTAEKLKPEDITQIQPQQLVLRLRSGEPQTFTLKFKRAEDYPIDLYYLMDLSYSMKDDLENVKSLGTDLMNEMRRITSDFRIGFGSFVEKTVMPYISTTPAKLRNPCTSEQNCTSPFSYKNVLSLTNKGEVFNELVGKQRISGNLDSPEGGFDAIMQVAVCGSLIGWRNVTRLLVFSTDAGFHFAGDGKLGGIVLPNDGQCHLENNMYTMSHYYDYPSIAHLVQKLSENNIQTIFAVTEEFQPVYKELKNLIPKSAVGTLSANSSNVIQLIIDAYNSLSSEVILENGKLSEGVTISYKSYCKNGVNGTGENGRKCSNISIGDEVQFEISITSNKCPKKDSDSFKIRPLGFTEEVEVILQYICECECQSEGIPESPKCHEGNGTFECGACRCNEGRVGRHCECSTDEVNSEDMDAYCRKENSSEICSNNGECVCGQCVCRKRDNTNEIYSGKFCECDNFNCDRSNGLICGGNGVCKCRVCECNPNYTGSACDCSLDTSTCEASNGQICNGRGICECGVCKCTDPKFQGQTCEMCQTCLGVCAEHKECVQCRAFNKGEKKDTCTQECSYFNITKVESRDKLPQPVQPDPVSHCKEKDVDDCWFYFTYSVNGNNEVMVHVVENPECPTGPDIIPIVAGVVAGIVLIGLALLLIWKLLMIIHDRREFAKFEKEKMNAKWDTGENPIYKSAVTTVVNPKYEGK
T4 sequence (P08648 42-894 limits assumed): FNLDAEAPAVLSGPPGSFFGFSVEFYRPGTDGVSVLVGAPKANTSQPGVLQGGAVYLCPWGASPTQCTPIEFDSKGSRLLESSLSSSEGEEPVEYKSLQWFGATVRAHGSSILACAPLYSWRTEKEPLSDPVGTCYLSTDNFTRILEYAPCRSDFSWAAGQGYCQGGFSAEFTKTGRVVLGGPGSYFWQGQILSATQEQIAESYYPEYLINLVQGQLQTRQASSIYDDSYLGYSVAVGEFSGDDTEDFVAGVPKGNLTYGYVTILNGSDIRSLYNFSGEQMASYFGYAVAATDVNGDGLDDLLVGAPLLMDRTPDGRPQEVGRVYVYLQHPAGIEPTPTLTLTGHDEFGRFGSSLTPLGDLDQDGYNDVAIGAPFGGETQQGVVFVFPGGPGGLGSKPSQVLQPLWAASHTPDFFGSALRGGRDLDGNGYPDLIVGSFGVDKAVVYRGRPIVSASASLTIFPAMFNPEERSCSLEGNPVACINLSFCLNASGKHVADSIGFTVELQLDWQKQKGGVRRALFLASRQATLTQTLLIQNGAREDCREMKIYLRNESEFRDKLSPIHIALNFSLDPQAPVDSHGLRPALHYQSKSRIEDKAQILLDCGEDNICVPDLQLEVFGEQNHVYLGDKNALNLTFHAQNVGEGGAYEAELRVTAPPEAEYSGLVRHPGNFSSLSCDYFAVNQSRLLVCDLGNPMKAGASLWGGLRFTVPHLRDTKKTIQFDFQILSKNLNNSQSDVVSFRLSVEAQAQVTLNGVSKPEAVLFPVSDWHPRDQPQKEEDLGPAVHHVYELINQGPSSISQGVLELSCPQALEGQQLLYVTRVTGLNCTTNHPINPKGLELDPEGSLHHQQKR
T4 sequence (P08648 895-1049 limits assumed): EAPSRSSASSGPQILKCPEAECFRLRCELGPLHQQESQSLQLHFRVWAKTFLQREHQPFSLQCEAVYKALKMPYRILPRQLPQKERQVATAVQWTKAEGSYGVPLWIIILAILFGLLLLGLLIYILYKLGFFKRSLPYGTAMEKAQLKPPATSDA
T5 sequence (P05556 21-798 limits assumed): as the sequence (P05556 21-798 limits assumed) above
T5 sequence (P06756 31-889 limits assumed): as the sequence (P06756 31-889 limits assumed) above
T5 sequence (P06756 891-1048 limits assumed): as the sequence (P06756 891-1048 limits assumed) above
T2 sequence (P06756 31-889 limits assumed): as the sequence (P06756 31-889 limits assumed) above
T2 sequence (P06756 891-1048 limits assumed): as the sequence (P06756 891-1048 limits assumed) above
T2 sequence (P26012 43-769 limits assumed): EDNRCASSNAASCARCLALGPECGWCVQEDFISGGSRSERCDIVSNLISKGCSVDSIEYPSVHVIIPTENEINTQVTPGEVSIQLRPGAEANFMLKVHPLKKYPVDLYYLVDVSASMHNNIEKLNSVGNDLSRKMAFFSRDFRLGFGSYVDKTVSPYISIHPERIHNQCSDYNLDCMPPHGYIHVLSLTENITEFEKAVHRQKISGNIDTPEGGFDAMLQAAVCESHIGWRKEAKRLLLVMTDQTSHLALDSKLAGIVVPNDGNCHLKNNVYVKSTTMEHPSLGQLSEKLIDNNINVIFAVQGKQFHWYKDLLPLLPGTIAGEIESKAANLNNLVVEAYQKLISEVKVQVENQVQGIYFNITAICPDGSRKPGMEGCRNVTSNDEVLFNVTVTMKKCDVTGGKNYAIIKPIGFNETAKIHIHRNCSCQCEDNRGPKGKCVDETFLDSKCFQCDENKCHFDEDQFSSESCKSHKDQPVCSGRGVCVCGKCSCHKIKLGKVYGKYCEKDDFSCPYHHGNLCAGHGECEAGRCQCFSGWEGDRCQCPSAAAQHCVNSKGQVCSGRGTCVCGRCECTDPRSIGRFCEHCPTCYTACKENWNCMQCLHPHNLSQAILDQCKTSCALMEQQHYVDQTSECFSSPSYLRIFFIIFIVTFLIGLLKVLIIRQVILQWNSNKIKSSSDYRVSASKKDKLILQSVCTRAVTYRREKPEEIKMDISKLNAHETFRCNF

SMILES: O=C(CN1Cc2ccccc2NC1=O)NC[C@H](NC(=O)c1ccccc1Cl)C(=O)O
IC50 [5]: 398 nM

SMILES: O=C(CN1C(=O)Cc2ccccc21)NC[C@H](NC(=O)c1ccccc1Cl)C(=O)O
IC50 [5]: > 10000 nM

SMILES: O=C(NC(CNc1ccc(N2CCNC2=O)cc1)C(=O)O)c1c(Cl)cccc1Cl (racemic)
IC50 [1]: > 10000 nM
IC50 [2]: 7940 nM
IC50 [3]: 3980 nM
IC50 [4]: 631 nM
IC50 [5]: 200 nM
IC50 [6]: 1260 nM
IC50 [7]: 200 nM

SMILES: O=C(NC(CNc1ccccc1)C(=O)O)c1c(Cl)cccc1Cl (centres undefined)
IC50 [1]: > 10000 nM
IC50 [2]: > 10000 nM
IC50 [3]: > 10000 nM
IC50 [4]: > 10000 nM
IC50 [5]: 200 nM
IC50 [6]: > 10000 nM

SMILES: N=C(N)NCCCCC(=O)Nc1ccc(C[C@H](NC(=O)[C@@H]2CCCN2S(=O)(=O)c2ccccc2)C(=O)O)cc1
IC50 [10]: 1740 nM
IC50 [11]: > 10000 nM
IC50 [12]: 10 nM
IC50 [13]: 1000 nM
IC50 [14]: 316 nM
IC50 [15]: 5890 nM
IC50 [16]: 12.6 nM
IC50 [17]: 34.7 nM

SMILES: O=C(CN1C(=O)NCc2ccccc21)NC[C@H](NC(=O)c1ccccc1Cl)C(=O)O
IC50 [5]: 316 nM

Results, then the compound that gave them:

IC50 [1]: 3160 nM
IC50 [2]: 1580 nM
IC50 [3]: > 10000 nM
IC50 [4]: 251 nM
IC50 [5]: 0.631 nM
IC50 [6]: > 10000 nM
IC50 [7]: 1580 nM
SMILES: COc1ccc(Cl)c(C(=O)N[C@@H](CNC(=O)Cn2c(=O)[nH]c3ncccc32)C(=O)O)c1F

IC50 [1]: > 10000 nM
IC50 [2]: 7940 nM
IC50 [3]: > 10000 nM
IC50 [4]: 398 nM
IC50 [5]: 5.01 nM
IC50 [6]: > 10000 nM
IC50 [7]: 2510 nM
SMILES: O=C(Cn1c(=O)[nH]c2ncccc21)NC[C@H](NC(=O)c1c(F)cccc1Cl)C(=O)O

IC50 [5]: 79.4 nM
Papp A→B at 1 h [8]: 0.4 ×10⁻⁶ cm/s
Papp B→A at 1 h [9]: 0.3 ×10⁻⁶ cm/s
SMILES: Cc1cnc2[nH]c(=O)n(CC(=O)NC[C@H](NC(=O)c3c(Cl)ccc(C)c3F)C(=O)O)c2c1

IC50 [5]: 0.631 nM
Papp A→B at 1 h [8]: 0.9 ×10⁻⁶ cm/s
Papp B→A at 1 h [9]: 0.7 ×10⁻⁶ cm/s
SMILES: Cc1ccc(Cl)c(C(=O)N[C@@H](CNC(=O)Cn2c(=O)[nH]c3ncncc32)C(=O)O)c1F

IC50 [1]: 6310 nM
IC50 [2]: 3980 nM
IC50 [3]: > 10000 nM
IC50 [4]: 158 nM
IC50 [5]: 1.26 nM
IC50 [6]: > 10000 nM
IC50 [7]: 5010 nM
SMILES: COc1cc(F)c(C(=O)N[C@@H](CNC(=O)Cn2c(=O)[nH]c3ncccc32)C(=O)O)c(Cl)c1

IC50 [1]: > 10000 nM
IC50 [2]: > 10000 nM
IC50 [3]: > 10000 nM
IC50 [4]: 1260 nM
IC50 [5]: 20 nM
IC50 [6]: > 10000 nM
IC50 [7]: 2000 nM
SMILES: O=C(Cn1c(=O)[nH]c2ccccc21)NC[C@H](NC(=O)c1c(Cl)cccc1Cl)C(=O)O

IC50 [5]: > 10000 nM
SMILES: O=C(Cn1cnc2ccccc21)NC[C@H](NC(=O)c1ccccc1Cl)C(=O)O
